Data published in PubChem BioAssay (NCI).
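Assay format: 96-well plates, 48-hour exposure. TGI is the concentration that stops growth completely.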 The source made the active and inactive calls. Rule as the data show it: active = GI50 below about 0.43 µM; inactive = the rest.

Tests used:
Assay in all cases: inhibition of tumour cell growth, NCI panel, 48 h
[1] = tested on: HL-60(TB) leukemia
[2] = tested on: COLO 205 colon
[3] = tested on: HOP-92 NSCLC
[4] = tested on: HOP-62 NSCLC
[5] = tested on: NCI-H23 lung
[6] = tested on: OVCAR-3 ovarian
[7] = tested on: BT-549 breast
[8] = tested on: SW-620 colon
[9] = tested on: U251 CNS
[10] = tested on: HS 578T breast
[11] = tested on: SNB-19 CNS
[12] = tested on: PC-3 prostate
[13] = tested on: SK-MEL-2 melanoma
[14] = tested on: SF-268 CNS
[15] = tested on: M14 melanoma
[16] = tested on: SK-MEL-5 melanoma
[17] = tested on: SK-MEL-28 melanoma
[18] = tested on: MALME-3M melanoma
[19] = tested on: IGROV1 ovarian
[20] = tested on: MDA-MB-231 breast
[21] = tested on: UACC-257 melanoma
[22] = tested on: HCT-15 colon
[23] = tested on: OVCAR-8 ovarian
[24] = tested on: NCI/ADR-RES ovarian
[25] = tested on: UO-31 renal
[26] = tested on: MOLT-4 leukemia
[27] = tested on: SF-539 CNS
[28] = tested on: CAKI-1 renal
[29] = tested on: UACC-62 melanoma
[30] = tested on: NCI-H226 lung
[31] = tested on: A549 NSCLC
[32] = tested on: 786-0 renal
[33] = tested on: NCI-H522 lung
[34] = tested on: EKVX NSCLC
[35] = tested on: CCRF-CEM leukemia
[36] = tested on: A498 renal
[37] = tested on: HCT-116 colon
[38] = tested on: HT29 colon
[39] = tested on: ACHN renal
[40] = tested on: KM12 colon
[41] = tested on: RXF 393 renal
[42] = tested on: DU-145 prostate
[43] = tested on: OVCAR-4 ovarian
[44] = tested on: MCF7 breast
[45] = tested on: LOX IMVI melanoma
[46] = tested on: T-47D breast
[47] = tested on: MDA-MB-435
[48] = tested on: SF-295 CNS
[49] = tested on: RPMI-8226 leukemia
[50] = tested on: K-562 leukemia
[51] = tested on: SN12C renal
[52] = tested on: OVCAR-5 ovarian
[53] = tested on: TK-10 renal
[54] = tested on: SR leukemia

## COC(=O)[C@H]1NC(=O)CCSSC1(C)C
[1]
  TGI: > 100 µM
[2]
  TGI: > 100 µM
[3]
  TGI: > 100 µM
[4]
  TGI: > 100 µM
[5]
  TGI: > 100 µM
[6]
  TGI: > 100 µM
[7]
  TGI: > 100 µM
[8]
  TGI: > 100 µM
[9]
  TGI: > 100 µM
[10]
  TGI: > 100 µM
[11]
  TGI: > 100 µM
[12]
  TGI: > 100 µM
[13]
  TGI: > 100 µM
[14]
  TGI: > 100 µM
[15]
  TGI: > 100 µM
[16]
  TGI: > 100 µM
[17]
  TGI: > 100 µM
[18]
  TGI: > 100 µM
[19]
  TGI: > 100 µM
[20]
  TGI: > 100 µM
[21]
  TGI: > 100 µM
[22]
  TGI: > 100 µM
[23]
  TGI: > 100 µM
[24]
  TGI: > 100 µM
[25]
  TGI: > 100 µM
[26]
  TGI: > 100 µM
[27]
  TGI: > 100 µM
[28]
  TGI: > 100 µM
[29]
  TGI: > 100 µM
[30]
  TGI: > 100 µM
[31]
  TGI: > 100 µM
[32]
  TGI: > 100 µM
[33]
  TGI: > 100 µM
[34]
  TGI: > 100 µM
[35]
  TGI: > 100 µM
[36]
  TGI: > 100 µM
[37]
  TGI: > 100 µM
[38]
  TGI: > 100 µM
[39]
  TGI: > 100 µM
[40]
  TGI: > 100 µM
[41]
  TGI: > 100 µM
[42]
  TGI: > 100 µM
[43]
  TGI: > 100 µM
[44]
  TGI: > 100 µM
[45]
  TGI: > 100 µM
[46]
  TGI: > 100 µM
[47]
  TGI: > 100 µM
[48]
  TGI: > 100 µM
[49]
  TGI: > 100 µM
[50]
  TGI: > 100 µM
[51]
  TGI: > 100 µM
[52]
  TGI: > 100 µM
[53]
  TGI: > 100 µM

## O=c1c2ccccc2c(=O)c2c1c1[nH]c3ccccc3c1c1c(=O)c3ccccc3c(=O)c21
[54]
  outcome: inactive
[26]
  outcome: inactive
[49]
  outcome: inactive
